# US5624923A, “Tricyclic diazepine vasopressin antagonists and oxytocin antagonists” (priority 1995, dated 1997)
# Several values for one entry are separate records, joined by “and”; a condition that tells them apart may be missing. Identical values can stand only once.
# Key:
# [1] = target: T1, Rat Kidney Medullary V2 Receptors (Rattus norvegicus, UniProt Q00788); assay: Binding Assay to Rat Kidney Medullary V2 Receptors; settings: rat kidney medulla membranes; read-out: V2 IC50
# T1 construct: Medullary tissues from rat kidneys are dissected out; from tissue; host or cells: rat kidney medulla membranes
# Method in brief: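 Membranes were prepared from rat kidney medulla and stored in 50.0 mM Tris-HCl pH 7.4 with 0.2% BSA and 0.1 mM PMSF. Radioligand competition ran 120 min at bench temperature, with 1.0 μM unlabeled ligand defining nonspecific binding. Compounds were added in 50% DMSO; filtration, tritium scintillation counting, IC50 from competition analysis.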
# Vasopressin V1 = Vasopressin V1 Antagonist Activity in Conscious Rats (vasopressin vasopressor response); type: in vivo, rat; parameters: Average Change: unit not given here; settings: for % Inhibition / Average Change: SHR
# Method in brief: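 Conscious rats are restrained supine, and under local 2% procaine a PE 10/20 cannula is passed through the ventral caudal tail artery into the lower abdominal aorta. The caudal vein is cannulated for intravenous dosing. Blood pressure is recorded with a Statham P23Db transducer, and vasopressin injections are repeated after compound dosing. Percent antagonism is calculated against the pre-drug vasopressor response taken as 100%.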
# Vasopressin V2 = Vasopressin V2 Antagonist Activity in Conscious Hydrated Rats; type: in vivo, rat; settings: AVP 0.4 μg/kg i.p.
# Method in brief: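 Four-hour urine output, osmolality and electrolytes (Na+, K+, Cl−) recorded in water-loaded rats (30 mL/kg deionized water orally) given AVP i.p. at 0.4 μg/kg. Test compounds were given orally at 0.1–100 mg/kg 1 h before AVP; 2–4 rats per compound.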
# Rat Hepatic V1 Receptors = target: T2, Rat Hepatic V1 Receptors (Rattus norvegicus, UniProt P30560); assay: Binding Assay to Rat Hepatic V1 Receptors; settings: rat liver membranes; read-out: V1 IC50
# T2 construct: Rat liver plasma membranes expressing the vasopressin V1 receptor subtypes; from tissue; host or cells: rat liver plasma membranes
# [2] = 3 mg/kg i.v., VAS 0.01 i.u./kg, 30 min
# [3] = 3 mg/kg i.v., VAS 0.01 i.u./kg, 60 min
# [4] = 3 mg/kg i.v., VAS 0.01 i.u./kg, 90 min
# [5] = 3 mg/kg i.v., VAS 0.01 i.u./kg, 120 min
# [6] = 3 mg/kg i.v., VAS 0.01 i.u./kg, 180 min
# [7] = 3 mg/kg i.v., VAS 0.01 i.u./kg, 240 min
# [8] = 3 mg/kg i.v., VAS 0.01 i.u./kg, 300 min
# [9] = 3 mg/kg i.v., VAS 0.02 i.u./kg, 30 min
# [10] = 3 mg/kg i.v., VAS 0.02 i.u./kg, 60 min
# [11] = 3 mg/kg i.v., VAS 0.02 i.u./kg, 90 min
# [12] = 3 mg/kg i.v., VAS 0.02 i.u./kg, 120 min
# [13] = 3 mg/kg i.v., VAS 0.02 i.u./kg, 300 min
# [14] = 10 mg/kg p.o., VAS 0.01 i.u./kg, 30 min
# [15] = 10 mg/kg p.o., VAS 0.01 i.u./kg, 60 min
# [16] = 10 mg/kg p.o., VAS 0.01 i.u./kg, 120 min
# [17] = 10 mg/kg p.o., VAS 0.01 i.u./kg, 300 min
# [18] = 10 mg/kg p.o., VAS 0.02 i.u./kg, 30 min
# [19] = 10 mg/kg p.o., VAS 0.02 i.u./kg, 60 min
# [20] = 10 mg/kg p.o., VAS 0.02 i.u./kg, 300 min
# [21] = 30 mg/kg p.o., VAS 0.01 i.u./kg, 30 min
# [22] = 30 mg/kg p.o., VAS 0.01 i.u./kg, 60 min
# [23] = 30 mg/kg p.o., VAS 0.01 i.u./kg, 90 min
# [24] = 30 mg/kg p.o., VAS 0.01 i.u./kg, 120 min
# [25] = 30 mg/kg p.o., VAS 0.01 i.u./kg, 180 min
# [26] = 30 mg/kg p.o., VAS 0.01 i.u./kg, 240 min
# [27] = 30 mg/kg p.o., VAS 0.02 i.u./kg, 30 min
# [28] = 30 mg/kg p.o., VAS 0.02 i.u./kg, 60 min
# [29] = 30 mg/kg p.o., VAS 0.02 i.u./kg, 90 min
# [30] = 30 mg/kg p.o., VAS 0.02 i.u./kg, 120 min
# [31] = 30 mg/kg p.o., VAS 0.02 i.u./kg, 180 min
# [32] = 30 mg/kg p.o., VAS 0.02 i.u./kg, 240 min
# T1 sequence (Q00788 whole entry): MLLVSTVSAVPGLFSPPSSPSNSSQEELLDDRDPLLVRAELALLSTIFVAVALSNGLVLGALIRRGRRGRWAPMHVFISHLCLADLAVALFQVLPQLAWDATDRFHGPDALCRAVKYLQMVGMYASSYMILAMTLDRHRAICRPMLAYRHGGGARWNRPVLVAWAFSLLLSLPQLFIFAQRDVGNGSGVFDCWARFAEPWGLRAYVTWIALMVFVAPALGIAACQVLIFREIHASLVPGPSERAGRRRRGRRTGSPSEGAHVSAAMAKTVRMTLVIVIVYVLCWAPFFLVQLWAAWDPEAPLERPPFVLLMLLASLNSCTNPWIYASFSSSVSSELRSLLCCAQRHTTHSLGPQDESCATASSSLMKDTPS
# T2 sequence (P30560 whole entry): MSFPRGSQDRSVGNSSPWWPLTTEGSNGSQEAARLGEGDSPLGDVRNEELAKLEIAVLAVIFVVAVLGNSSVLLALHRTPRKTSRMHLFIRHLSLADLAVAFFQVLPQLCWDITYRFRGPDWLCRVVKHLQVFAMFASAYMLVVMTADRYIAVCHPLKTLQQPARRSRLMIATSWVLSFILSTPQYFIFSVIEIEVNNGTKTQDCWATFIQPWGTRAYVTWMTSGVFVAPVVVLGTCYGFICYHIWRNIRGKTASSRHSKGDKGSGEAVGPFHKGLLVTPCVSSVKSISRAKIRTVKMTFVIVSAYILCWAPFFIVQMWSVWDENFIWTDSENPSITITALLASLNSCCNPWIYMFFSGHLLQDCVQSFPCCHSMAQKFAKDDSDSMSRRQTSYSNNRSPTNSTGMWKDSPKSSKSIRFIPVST
smiles,measurement,setting,value
"O=C(Nc1ccc(C(=O)N2Cc3cccn3Cc3ccccc32)cc1)C(O)c1ccccc1 (racemic) [Example 588, (±) α-Hydroxy-N-[4-(5H-pyrrolo[2,1c][1,4]benzodiazepin-10(11H)-ylcarbonyl)phenyl]benzeneacetamide]",IC50,[1],12 nM
same,Max. % Inhibition,Vasopressin V1; 10 mg/kg i.v.,65%
same,Time (of max. % inhibition),Vasopressin V1; 10 mg/kg i.v.,90 min
same,Max. % Inhibition,Vasopressin V1; 30 mg/kg p.o.,80%
same,Time (of max. % inhibition),Vasopressin V1; 30 mg/kg p.o.,120 min
same,Osmolality,Vasopressin V2; 10 mg/kg orally,687 mOsm/kg
same,Urine Volume,Vasopressin V2; 10 mg/kg orally,9.5 ml/4 hrs
same,IC50,Rat Hepatic V1 Receptors,40 nM
"Cc1ccccc1C(=O)Nc1ccc(C(=O)N2Cc3cccn3Cc3ccccc32)cc1 [Example 3, 2-Methyl-N-[4-(5H-pyrrolo[2,1-c][1,4]-benzodiazepin-10(11H)-ylcarbonyl)phenyl]benzamide]",IC50,[1],4 nM
same,% Inhibition,Vasopressin V1; [2],70% and 69%
same,Average Change,Vasopressin V1; [2],15
same,% Inhibition,Vasopressin V1; [3],75% and 57%
same,Average Change,Vasopressin V1; [3],12.5 and 21
same,% Inhibition,Vasopressin V1; [4],65% and 76%
same,Average Change,Vasopressin V1; [4],17.5 and 12
same,% Inhibition,Vasopressin V1; [5],60% and 58%
same,Average Change,Vasopressin V1; [5],20 and 20.5
same,% Inhibition,Vasopressin V1; [6],40% and 57%
same,Average Change,Vasopressin V1; [6],30 and 21
same,% Inhibition,Vasopressin V1; [7],20% and 35%
same,Average Change,Vasopressin V1; [7],40 and 32
same,% Inhibition,Vasopressin V1; [8],61%
same,Average Change,Vasopressin V1; [8],19
same,% Inhibition,Vasopressin V1; [9],57%
same,Average Change,Vasopressin V1; [9],23.5 and 22
same,% Inhibition,Vasopressin V1; [10],68% and 44%
same,Average Change,Vasopressin V1; [10],17.5 and 29
same,% Inhibition,Vasopressin V1; [11],73% and 46%
same,Average Change,Vasopressin V1; [11],15 and 28
same,% Inhibition,Vasopressin V1; [12],41% and 64%
same,Average Change,Vasopressin V1; [12],32.5 and 18.5
same,Average Change,"Vasopressin V1; 3 mg/kg i.v., VAS 0.02 i.u./kg, 180 min",55 and 28.5
same,Average Change,"Vasopressin V1; 3 mg/kg i.v., VAS 0.02 i.u./kg, 240 min",52.5 and 27.5
same,% Inhibition,Vasopressin V1; [13],41%
same,Average Change,Vasopressin V1; [13],30.5
same,% Inhibition,Vasopressin V1; [14],78% and 71% and 73%
same,Average Change,Vasopressin V1; [14],12.5 and 10 and 11
same,% Inhibition,Vasopressin V1; [15],70% and 71%
same,Average Change,Vasopressin V1; [15],17.5 and 10.5 and 11.5
same,% Inhibition,"Vasopressin V1; 10 mg/kg p.o., VAS 0.01 i.u./kg, 90 min",81% and 70%
same,% Inhibition,Vasopressin V1; [16],74% and 59% and 69%
same,Average Change,Vasopressin V1; [16],15 and 14.5 and 12.5
same,% Inhibition,"Vasopressin V1; 10 mg/kg p.o., VAS 0.01 i.u./kg, 180 min",65% and 77% and 61%
same,% Inhibition,"Vasopressin V1; 10 mg/kg p.o., VAS 0.01 i.u./kg, 240 min",61% and 76% and 51%
same,% Inhibition,Vasopressin V1; [17],59%
same,Average Change,Vasopressin V1; [17],16.5
same,% Inhibition,Vasopressin V1; [18],65% and 66% and 70%
same,Average Change,Vasopressin V1; [18],17.5 and 18.5 and 16
same,% Inhibition,Vasopressin V1; [19],55% and 66% and 58%
same,Average Change,Vasopressin V1; [19],22.5 and 18.5
same,% Inhibition,Vasopressin V1; [20],56%
same,Average Change,Vasopressin V1; [20],24
same,% Inhibition,Vasopressin V1; [21],72%
same,Average Change,Vasopressin V1; [21],15
same,% Inhibition,Vasopressin V1; [22],57%
same,Average Change,Vasopressin V1; [22],22.5
same,% Inhibition,Vasopressin V1; [23],81%
same,Average Change,Vasopressin V1; [23],10
same,% Inhibition,Vasopressin V1; [24],81%
same,Average Change,Vasopressin V1; [24],10
same,% Inhibition,Vasopressin V1; [25],81%
same,Average Change,Vasopressin V1; [25],10
same,% Inhibition,Vasopressin V1; [26],91%
same,Average Change,Vasopressin V1; [26],5
same,% Inhibition,Vasopressin V1; [27],62%
same,Average Change,Vasopressin V1; [27],20
same,% Inhibition,Vasopressin V1; [28],57%
same,Average Change,Vasopressin V1; [28],22.5
same,% Inhibition,Vasopressin V1; [29],62%
same,Average Change,Vasopressin V1; [29],20
same,% Inhibition,Vasopressin V1; [30],76%
same,Average Change,Vasopressin V1; [30],12.5
same,% Inhibition,Vasopressin V1; [31],67%
same,Average Change,Vasopressin V1; [31],17.5
same,% Inhibition,Vasopressin V1; [32],81%
same,Average Change,Vasopressin V1; [32],10
same,Osmolality,Vasopressin V2; 1 mg/kg orally,515 ± 79 mOsm/kg
same,Urine Volume,Vasopressin V2; 1 mg/kg orally,6.5 ± 1 ml/4 hrs
same,Osmolality,Vasopressin V2; 3 mg/kg orally,584 ± 56 mOsm/kg
same,Urine Volume,Vasopressin V2; 3 mg/kg orally,9.6 ± 0.9 ml/4 hrs
same,Osmolality,Vasopressin V2; 10 mg/kg orally,567 ± 33 mOsm/kg
same,Urine Volume,Vasopressin V2; 10 mg/kg orally,15.8 ± 1 ml/4 hrs
same,IC50,Rat Hepatic V1 Receptors,38 nM
